Source: US20250049812A1, “Compounds that Inhibit Necroptosis and Their Preparation Methods” (SHANGHAI INSTITUTE OF ORGANIC CHEMISTRY, CHINESE ACADEMY OF …, priority 2021, published 2025)

What follows are compounds tested on Jurkat FADD (−/−) Cells (assay: TNF-α induced necroptosis of Jurkat FADD-deficient cells (CellTiter-Glo cell survival)). Settings: Homo sapiens; TNF-α induced necroptosis, Jurkat FADD-deficient cells, 13 hours, CellTiter-Glo; read-out: IC50.
Type: cell-based, human
Outline: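 Cells in RPMI 1640 with 10% FBS were pretreated for 1 h at 37 °C with compound (12-point threefold series from 25 μM, or 0.5 μM, in triplicate). They were then stimulated with TNFα added as a 5 ng/mL solution for 13 h. Survival was read by luminescence.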

Row | Compound | IC50
1 | CN1C(=O)C(NC(=O)c2nnc(Cc3ccccc3)[nH]2)Cc2cn(CC#N)c3cccc1c23 (racemic) [T-25, (±)-5-benzyl-N-(6-(cyanomethyl)-1-methyl-2-oxo-2,3,4,6-tetrahydro-1H-azacyclo [4,3,2-cd]indol-3-yl)-4H-1,2,4-triazole-3-carboxamide] | < 0.01 µM
2 | CN1C(=O)C(NC(=O)c2nnc(Cc3ccccc3)[nH]2)Cc2c[nH]c3cccc1c23 (racemic) [T-19, (±)-5-benzyl-N-(1-methyl-2-oxo-2,3,4,6-tetrahydro-1H-azacyclo [4,3,2-cd]indol-3-yl)-4H-1,2,4-triazole-3-carboxamide] | < 0.01 µM
3 | CN1C(=O)C(NC(=O)c2nnc(Cc3ccccc3)[nH]2)Cc2cn(-c3ncn(C)n3)c3cccc1c23 (racemic) [T-73, (±)-5-benzyl-N-(1-methyl-6-(1-methyl-1H-1,2,4-triazole-3-yl)-2-oxo-2,3,4,6-tetrahydro-1H-azacyclo [4,3,2-cd]indol-3-yl)-4H-1,2,4-triazole-3-carboxamide] | 0.01 to 0.1 µM
4 | CN1C(=O)C(NC(=O)c2nnc(Cc3ccccc3)[nH]2)Cc2cn(-c3ccccc3)c3cccc1c23 (racemic) [T-24, (±)-5-benzyl-N-(1-methyl-2-oxo-6-phenyl-2,3,4,6-tetrahydro-1H-azacyclo [4,3,2-cd]indol-3-yl)-4H-1,2,4-triazole-3-carboxamide] | 0.01 to 0.1 µM
5 | CN1C(=O)C(NC(=O)c2nnc(Cc3ccccc3)[nH]2)Cc2cn(-c3ncccc3S(C)(=O)=O)c3cccc1c23 (racemic) [T-68, (±)-5-benzyl-N-(1-methyl-6-(3-(methylsulfonyl)pyridin-2-yl)-2-oxo-2,3,4,6-tetrahydro-1H-azepine [4,3,2-cd]indol-3-yl)-4H-1,2,4-triazole-3-carboxamide] | < 0.01 µM
6 | CN1C(=O)[C@@H](NC(=O)c2nnc(Cc3ccccc3)[nH]2)Cn2cc(-c3cnn(CC(F)(F)F)c3)c3cccc1c32 [T-124, (S)-5-benzyl-N-(1-methyl-2-oxo-7-(1-(2,2,2-trifluoroethyl)-1H-pyrazol-4-yl)-1,2,3,4-tetrahydro-[1,4]diazepine [3,2,1-hi]indol-3-yl)-4H-1,2,4-triazole-3-carboxamide] | 0.01 to 0.1 µM
7 | CN1C(=O)C(NC(=O)c2nnc(Cc3ccccc3)[nH]2)Cc2c[nH]c3cncc1c23 (racemic) [T-130, (±)-5-benzyl-N-(6-methyl-7-oxo-6,7,8,9-tetrahydro-2H-2,3,6-triazabenzene[cd]azulene-8-yl)-4H-1,2,4-triazol-3-carboxamide] | > 1 µM
8 | CN1C(=O)C(NC(=O)c2nnc(Cc3ccccc3)[nH]2)CN2CCc3cccc1c32 (racemic) [T-14, (±)-5-benzyl-N-(1-methyl-2-oxo-1,2,3,4,6,7-hexahydro-[1,4]diazepino [3,2,1-hi]indol-3-yl)-4H-1,2,4-triazole-3-carboxamide] | 0.01 to 0.1 µM
9 | CN1C(=O)[C@@H](NC(=O)c2nnc(Cc3ccccc3)[nH]2)Cn2cc(-c3cnn(C(F)F)c3)c3cccc1c32 [T-115, (S)-5-benzyl-N-(7-(1-(difluoromethyl)-1H-pyrazol-4-yl)-1-methyl-2-oxo-1,2,3,4-tetrahydro-1,4-diazepine [3,2,1-hi]indol-3-yl)-4H-1,2,4-triazole-3-carboxamide] | 0.01 to 0.1 µM
10 | COc1cccc(OC)c1-c1cn2c3c(cccc13)N(C)C(=O)C(NC(=O)c1nnc(Cc3ccccc3)[nH]1)C2 (racemic) [T-85, (±)-5-benzyl-N-(7-(2,6-dimethoxyphenyl)-1-methyl-2-oxo-1,2,3,4-tetrahydro-[1,4]diazepino [3,2,1-hi]indol-3-yl)-4H-1,2,4-triazole-3-carboxamide] | 0.1 to 1 µM
11 | CN1C(=O)C(NC(=O)c2nnc(Cc3ccccc3)[nH]2)Cn2ccc3cc(Br)cc1c32 (racemic) [T-6, (±)-5-benzyl-N-(9-bromo-1-methyl-2-oxo-1,2,3,4-tetrahydro-[1,4]diazepino [3,2,1-hi]indol-3-yl)-4H-1,2,4-triazole-3-carboxamide] | 0.1 to 1 µM
12 | CC(C)n1nccc1-c1cn2c3c(cccc13)N(C)C(=O)C(NC(=O)c1nnc(Cc3ccccc3)[nH]1)C2 (racemic) [T-90, (±)-5-benzyl-N-(7-(1-isopropyl-1H-pyrazol-5-yl)-1-methyl-2-oxo-1,2,3,4-tetrahydro-1,4-diazepine [3,2,1-hi]indol-3-yl)-4H-1,2,4-triazole-3-carboxamide] | < 0.01 µM
13 | CN1C(=O)[C@@H](NC(=O)c2nnc(Cc3ccccc3)[nH]2)Cn2cc(-c3cnc(Cl)n3C)c3cccc1c32 [T-126, (S)-5-benzyl-N-(7-(2-chloro-1-methyl-1H-imidazol-5-yl)-1-methyl-2-oxo-1,2,3,4-tetrahydro-1,4-diazepine [3,2,1-hi]indol-3-yl)-4H-1,2,4-triazole-3-carboxamide] | 0.01 to 0.1 µM
14 | CN1C(=O)C(NC(=O)c2nnc(Cc3ccccc3)[nH]2)Cc2cn(CC(=O)O)c3cccc1c23 (racemic) [T-30, (±)-2-(3-(5-benzyl-4H-1,2,4-triazole-3-carboxamide)-1-methyl-2-oxo-1,2,3,4-tetrahydro-6H-azacyclo [4,3,2-cd]indol-6-yl)acetic Acid] | 0.1 to 1 µM
15 | CN1C(=O)[C@@H](NC(=O)c2nnc(Cc3ccccc3)[nH]2)Cn2cc(-c3cn(C)nc3-c3ccccc3)c3cccc1c32 [T-122, (S)-5-benzyl-N-(1-methyl-7-(1-methyl-3-phenyl-1H-pyrazol-4-yl)-2-oxo-1,2,3,4-tetrahydro-[1,4]diazepine [3,2,1-hi]indol-3-yl)-4H-1,2,4-triazole-3-carboxamide] | 0.01 to 0.1 µM
16 | CN1C(=O)C(NC(=O)c2nnc(Cc3ccccc3)[nH]2)Cc2cn(-c3nccc4ccccc34)c3cccc1c23 (racemic) [T-99, (±)-5-benzyl-N-(6-(isoquinolin-1-yl)-1-methyl-2-oxo-2,3,4,6-tetrahydro-1H-aza [4,3,2-cd]indol-3-yl)-4H-1,2,4-triazole-3-carboxamide] | < 0.01 µM
17 | COCc1cccc(-c2cn3c4c(cccc24)N(C)C(=O)C(NC(=O)c2nnc(Cc4ccccc4)[nH]2)C3)c1 (racemic) [T-80, (±)-5-benzyl-N-(7-(3-(methoxymethyl)phenyl)-1-methyl-2-oxo-1,2,3,4-tetrahydro-[1,4]diazepino [3,2,1-hi]indol-3-yl)-4H-1,2,4-triazole-3-carboxamide] | 0.01 to 0.1 µM
18 | Cc1nn(C)cc1-c1cn2c3c(cccc13)N(C)C(=O)[C@@H](NC(=O)c1nnc(Cc3ccccc3)[nH]1)C2 [T-117, (S)-5-benzyl-N-(7-(1,3-dimethyl-1H-pyrazol-4-yl)-1-methyl-2-oxo-1,2,3,4-tetrahydro-1,4-diazepine [3,2,1-hi]indol-3-yl)-4H-1,2,4-triazole-3-carboxamide] | < 0.01 µM
19 | CN1C(=O)C(NC(=O)c2nnc(Cc3ccccc3)[nH]2)Cc2cn(-c3ncccc3Cl)c3cccc1c23 (racemic) [T-62, (±)-5-benzyl-N-(6-(3-chloropyridin-2-yl)-1-methyl-2-oxo-2,3,4,6-tetrahydro-1H-azacyclo [4,3,2-cd]indol-3-yl)-4H-1,2,4-triazole-3-carboxamide] | < 0.01 µM
20 | CN1C(=O)C(NC(=O)c2ncc(Cc3ccccc3)o2)Cn2cc(-c3ccnn3C)c3cccc1c32 (racemic) [T-83, (±)-5-benzyl-N-(1-methyl-7-(1-methyl-1H-pyrazol-5-yl)-2-oxo-1,2,3,4-tetrahydro-[1,4]diazepino[3,2,1-hi]indol-3-yl)-oxazole-2-carboxamide] | < 0.01 µM
21 | Cc1nn(C)c(C)c1-c1cn2c3c(cccc13)N(C)C(=O)C(NC(=O)c1nnc(Cc3ccccc3)[nH]1)C2 (racemic) [T-114, (±)-5-benzyl-N-(1-methyl-2-oxo-7-(1,3,5-trimethyl-1H-pyrazol-4-yl)-1,2,3,4-tetrahydro-[1,4]diazepine [3,2,1-hi]indol-3-yl)-4H-1,2,4-triazole-3-carboxamide] | < 0.01 µM
22 | COc1ncccc1-c1cn2c3c(cccc13)N(C)C(=O)C(NC(=O)c1nnc(Cc3ccccc3)[nH]1)C2 (stereo not drawn) [T-78, 5-benzyl-N-(7-(2-methoxypyridin-3-yl)-1-methyl-2-oxo-1,2,3,4-tetrahydro-[1,4]diazepino[3,2,1-hi]indol-3-yl)-4H-1,2,4-triazole-3-carboxamide] | < 0.01 µM
23 | CN1C(=O)C(N2CCc3c(nn(Cc4ccccc4)c3Cl)C2=O)Cc2c[nH]c3cccc1c23 (racemic) [T-32, (±)-3-(2-benzyl-3-chloro-7-oxo-2,4,5,7-tetrahydro-6H-pyrazole [3,4-c]pyridin-6-yl)-1-methyl-1,3,4,6-tetrahydro-2H-azacyclo [4,3,2-cd] indole-2-one] | < 0.01 µM
24 | CN1C(=O)C(NC(=O)c2nnc(Cc3ccccc3)[nH]2)Cc2cn(-c3ncccc3C(F)F)c3cccc1c23 (racemic) [T-53, (±)-5-benzyl-N-(6-(3-(difluoromethyl)pyridin-2-yl)-1-methyl-2-oxo-2,3,4,6-tetrahydro-1H-azacyclo [4,3,2-cd]indol-3-yl)-4H-1,2,4-triazole-3-carboxamide] | < 0.01 µM
25 | CN1C(=O)C(N2CCc3c(nn(Cc4ccccc4)c3Cl)C2=O)Cc2cn(-c3ncccc3C(F)(F)F)c3cccc1c23 (racemic) [T-60, (±)-3-(2-benzyl-3-chloro-7-oxo-2,4,5,7-tetrahydro-6H-pyrazole [3,4-c]pyridin-6-yl)-1-methyl-6(3-(trifluoromethyl)pyridin-2-yl)-1,3,4,6-tetrahydro-2H-azepine [4,3,2-cd] indole-2-one] | < 0.01 µM
26 | CN1C(=O)C(NC(=O)c2nnc(Cc3ccccc3)[nH]2)Cc2cn(CC3CC3)c3cccc1c23 (racemic) [T-22, (±)-5-benzyl-N-(6-(cyclopropylmethyl)-1-methyl-2-oxo-2,3,4,6-tetrahydro-1H-azacyclo [4,3,2-cd]indol-3-yl)-4H-1,2,4-triazole-3-carboxamide] | 0.01 to 0.1 µM
27 | CN1C(=O)C(NC(=O)c2nnc(Cc3ccccc3)[nH]2)Cn2cc(-c3cnoc3)c3cccc1c32 (racemic) [T-88, (±)-5-benzyl-N-(7-(isoxazol-4-yl)-1-methyl-2-oxo-1,2,3,4-tetrahydro-[1,4]diazepine [3,2,1-hi]indol-3-yl)-4H-1,2,4-triazole-3-carboxamide] | 0.01 to 0.1 µM
